According to patent US20150031674A1, “SERINE/THREONINE KINASE INHIBITORS” (GENENTECH, INC., priority 2013, published 2015):

Biological target: human recombinant PAK1-KD protein (Homo sapiens, UniProt Q13153)
Experiment: PAK1-KD (Kinase Domain) IC50 Zlyte Assay (FRET peptide substrate phosphorylation)
Details: Z'-LYTE, Biological Example 1
Source text: PAK1-KD (Kinase Domain) IC50 Zlyte Assay Protocol
Activity of human recombinant PAK1-KD protein may be assessed in vitro by assay of the phosphorylation of a FRET peptide substrate. Catalytically active human recombinant PAK1-KD protein is obtained by purification from Tini cells infected with a human PAK1-KD recombinant baculovirus expression vector.
The activity/inhibition of PAK1-KD was estimated by measuring the phosphorylation of a FRET peptide substrate (Ser/Thr19) labeled with Coumarin and Fluorescein using Z′-LYTE™ assay (Invitrogen). The peptide substrate is a consensus sequence ([sequence]) based on various PAK substrates reported in the scientific literature. […] Incubations were carried out at 22° C. in black polypropylene 384-well plates (Corning Costar).

Sequence of human recombinant PAK1-KD protein (Q13153 270-521 limits assumed): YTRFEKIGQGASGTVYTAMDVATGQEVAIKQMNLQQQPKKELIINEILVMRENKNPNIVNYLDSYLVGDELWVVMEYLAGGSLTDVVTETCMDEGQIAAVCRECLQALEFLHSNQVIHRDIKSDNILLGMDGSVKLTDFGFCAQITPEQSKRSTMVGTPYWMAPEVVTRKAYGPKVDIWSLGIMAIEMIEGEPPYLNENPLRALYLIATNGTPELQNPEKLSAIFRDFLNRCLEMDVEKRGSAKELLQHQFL

Compound | Ki
CNc1ncc2cc(-c3ccc(-c4cccc(C)n4)cc3Cl)c(=O)n(CS(=O)(=O)N3CCNCC3)c2n1 [Example I-162, 6-[2-chloro-4-(6-methyl-2-pyridyl)phenyl]-2-(methylamino)-8-(piperazin-1-ylsulfonylmethyl)pyrido[2,3-d]pyrimidin-7-one] | 14.7 nM
Cc1cncc(-c2ccc(-c3cc4cnc(NC5(C)COC5)nc4n(CCCC(N)=O)c3=O)c(Cl)c2)n1 [Example I-41, 4-[6-[2-Chloro-4-(6-methylpyrazin-2-yl)phenyl]-2-[(3-methyloxetan-3-yl)amino]-7-oxo-pyrido[2,3-d]pyrimidin-8-yl]butanamide] | 31 nM
Cc1cncc(-c2ccc(-c3cc4cnc(N)nc4n(C[C@H]4OC[C@H](N)CO4)c3=O)c(Cl)c2)n1 [Example I-163, 2-amino-8-[(5-amino-1,3-dioxan-2-yl)methyl]-6-[2-chloro-4-(6-methylpyrazin-2-yl)phenyl]pyrido[2,3-d]pyrimidin-7-one] | 26.9 nM
CNc1ncc2cc(-c3ccc(-c4nc(C)cs4)cc3Cl)c(=O)n(C[C@H]3CNCCO3)c2n1 [Example I-189, 6-[2-chloro-4-(4-methylthiazol-2-yl)phenyl]-2-(methylamino)-8-[[(2R)-morpholin-2-yl]methyl]pyrido[2,3-d]pyrimidin-7-one] | 25.8 nM
CCNc1ncc2cc(-c3ccc(-c4cncc(C)n4)cc3Cl)c(=O)n(CCC3CNCCO3)c2n1 (single isomer, unassigned) [Example I-21] | 9.8 nM
CCNc1ncc2cc(-c3ccc(-c4cncc(C)n4)cc3Cl)c(=O)n(CCN3CCNC(=O)C3)c2n1 [Example I-130, 6-[2-chloro-4-(6-methylpyrazin-2-yl)phenyl]-2-(ethylamino)-8-[2-(3-oxopiperazin-1-yl)ethyl]pyrido[2,3-d]pyrimidin-7-one] | 52.2 nM
CNc1ncc2cc(-c3ccc(-c4csc(C)n4)cc3Cl)c(=O)n(C[C@@H]3CNCCO3)c2n1 [Example I-179, 6-[2-chloro-4-(2-methylthiazol-4-yl)phenyl]-2-(methylamino)-8-[[(2S)-morpholin-2-yl]methyl]pyrido[2,3-d]pyrimidin-7-one] | 66.6 nM
CCNc1ncc2cc(-c3ccc(-c4cccc(C)n4)cc3C)c(=O)n(CCC3CNCCO3)c2n1 (single isomer, unassigned) [Example I-115] | 1.4 nM
CCNc1ncc2cc(-c3ccc(-c4cncc(C)n4)cc3Cl)c(=O)n(CC[C@H](O)CO)c2n1 [Example I-83, (S)-6-(2-Chloro-4-(6-methylpyrazin-2-yl)phenyl)-8-(3,4-dihydroxybutyl)-2-(ethylamino)pyrido[2,3-d]pyrimidin-7(8H)-one] | 107 nM
CNc1ncc2cc(-c3ccc(-c4cccc(C)n4)cc3C)c(=O)n(CC(=O)N3CCNCC3)c2n1 [Example I-95, 2-(Methylamino)-6-[2-methyl-4-(6-methyl-2-pyridyl)phenyl]-8-(2-oxo-2-piperazin-1-yl-ethyl)pyrido[2,3-d]pyrimidin-7-one] | 27.3 nM
CNc1ncc2cc(-c3ccc(-c4cccc(C)n4)cc3Cl)c(=O)n(CCC3(C#N)CCNC3)c2n1 (centres unmarked) [Example I-199, 3-[2-[6-[2-chloro-4-(6-methyl-2-pyridyl)phenyl]-2-(methylamino)-7-oxo-pyrido[2,3-d]pyrimidin-8-yl]ethyl]pyrrolidine-3-carbonitrile] | 2.8 nM
CNc1ncc2cc(-c3ccc(-c4cccc(C)n4)cc3C)c(=O)n(C[C@@H]3CNCCO3)c2n1 [Example I-171, 6-(2-methyl-4-(6-methylpyridin-2-yl)phenyl)-2-(methylamino)-8-[[(2S)-morpholin-2-yl]methyl]pyrido[2,3-d]pyrimidin-7(8H)-one] | 5 nM
CNc1ncc2cc(-c3ccc(-c4cccc(C)n4)cc3Cl)c(=O)n(CCC3CNCCO3)c2n1 (single isomer, unassigned) [Example I-125, 6-(2-chloro-4-(6-methylpyridin-2-yl)phenyl)-2-(methylamino)-8-(2-(morpholin-2-yl)ethyl)pyrido[2,3-d]pyrimidin-7(8H)-one] | 4.7 nM
CCNc1ncc2cc(-c3ccc(-c4cncc(C)n4)cc3Cl)c(=O)n(CCOC3CCNC3)c2n1 (single isomer, unassigned) [Example I-51] | 13.2 nM
CNc1ncc2cc(-c3ccc(-c4csc(C)n4)cc3Cl)c(=O)n(C[C@H]3CNCCO3)c2n1 [Example I-182, 6-[2-chloro-4-(2-methylthiazol-4-yl)phenyl]-2-(methylamino)-8-[[(2R)-morpholin-2-yl]methyl]pyrido[2,3-d]pyrimidin-7-one] | 44.7 nM
Cc1cccc(-c2ccc(-c3cc4cnc(NC5COC5)nc4n(CCCC(N)=O)c3=O)c(C)c2)n1 [Example I-71, 4-[6-[2-Methyl-4-(6-methyl-2-pyridyl)phenyl]-2-(oxetan-3-ylamino)-7-oxo-pyrido[2,3-d]pyrimidin-8-yl]butanamide] | 11.3 nM
CNc1ncc2cc(-c3ccc(-c4csc(C)n4)cc3Cl)c(=O)n(CCCN)c2n1 [Example I-140, 8-(3-aminopropyl)-6-[2-chloro-4-(2-methylthiazol-4-yl)phenyl]-2-(methylamino)pyrido[2,3-d]pyrimidin-7-one] | 8.06 nM
Cc1cccc(-c2ccc(-c3cc4cnc(NC5COC5)nc4n(CC(=O)N4CCNCC4)c3=O)c(C)c2)n1 [Example I-106, 6-[2-Methyl-4-(6-methyl-2-pyridyl)phenyl]-2-(oxetan-3-ylamino)-8-(2-oxo-2-piperazin-1-yl-ethyl)pyrido[2,3-d]pyrimidin-7-one] | 54.5 nM
CNc1ncc2cc(-c3ccc(-c4cccc(C)n4)cc3C)c(=O)n(CCN3CCOCC3)c2n1 [Example I-165, 2-(Methylamino)-6-[2-methyl-4-(6-methyl-2-pyridyl)phenyl]-8-(2-morpholinoethyl)pyrido[2,3-d]pyrimidin-7-one] | 16.7 nM
Cc1cccc(-c2ccc(-c3cc4cnc(NC(C)C)nc4n(CCOCCN)c3=O)c(Cl)c2)n1 [Example I-60] | 1.1 nM
Cc1cncc(-c2ccc(-c3cc4cnc(NCC(F)F)nc4n(CCOC4CNC4)c3=O)c(Cl)c2)n1 [Example I-47, 8-[2-(azetidin-3-yloxy)ethyl]-6-[2-chloro-4-(6-methylpyrazin-2-yl)phenyl]-2-(2,2-difluoroethylamino)pyrido[2,3-d]pyrimidin-7-one] | 25.2 nM

Second part, the compound after the results:

Ki | Compound
29.8 nM | Cc1cncc(-c2ccc(-c3cc4cnc(NC5COC5)nc4n(CCCC(N)=O)c3=O)c(Cl)c2)n1 [Example I-55, 4-[6-[2-Chloro-4-(6-methylpyrazin-2-yl)phenyl]-2-(oxetan-3-ylamino)-7-oxo-pyrido[2,3-d]pyrimidin-8-yl]butanamide]
21.8 nM | Cc1cncc(-c2ccc(-c3cc4cnc(NC(C)C)nc4n(CCC4CNC(=O)C4)c3=O)c(Cl)c2)n1 (single isomer, unassigned) [Example I-98, 6-[2-Chloro-4-(6-methylpyrazin-2-yl)phenyl]-2-(isopropylamino)-8-[2-(5-oxopyrrolidin-3-yl)ethyl]pyrido[2,3-d]pyrimidin-7-one]
13.5 nM | CNc1ncc2cc(-c3ccc(-c4cncc(C)n4)cc3Cl)c(=O)n(C[C@H]3OC[C@H](NC)CO3)c2n1 [Example I-178, 6-[2-Chloro-4-(6-methylpyrazin-2-yl)phenyl]-2-(methylamino)-8-[[5-(methylamino)-1,3-dioxan-2-yl]methyl]pyrido[2,3-d]pyrimidin-7-one]
114 nM | CCNc1ncc2cc(-c3ccc(-c4cncc(C)n4)cc3Cl)c(=O)n(CC3(O)CCN(C)CC3)c2n1 [Example I-105, 6-[2-Chloro-4-(6-methylpyrazin-2-yl)phenyl]-2-(ethylamino)-8-[(4-hydroxy-1-methyl-4-piperidyl)methyl]pyrido[2,3-d]pyrimidin-7-one]
56 nM | CNc1ncc2cc(-c3ccc(-c4cncc(C)n4)cc3Cl)c(=O)n(CCNCCO)c2n1 [Example I-139, 6-[2-chloro-4-(6-methylpyrazin-2-yl)phenyl]-8-[2-(2-hydroxyethylamino)ethyl]-2-(methylamino)pyrido[2,3-d]pyrimidin-7-one]
14.4 nM | CNc1ncc2cc(-c3ccc(-c4cncc(C)n4)cc3Cl)c(=O)n(CC(=O)NCCN)c2n1 [Example I-156, N-(2-aminoethyl)-2-[6-[2-chloro-4-(6-methylpyrazin-2-yl)phenyl]-2-(methylamino)-7-oxo-pyrido[2,3-d]pyrimidin-8-yl]acetamide]
44.9 nM | CNc1ncc2cc(-c3ccc(-c4cncc(C)n4)cc3Cl)c(=O)n(CC(=O)N3CCC(O)C3)c2n1 (centres unmarked) [Example I-157, 6-[2-chloro-4-(6-methylpyrazin-2-yl)phenyl]-8-[2-(3-hydroxypyrrolidin-1-yl)-2-oxo-ethyl]-2-(methylamino)pyrido[2,3-d]pyrimidin-7-one]
8.5 nM | CNc1ncc2cc(-c3ccc(-c4cncc(C)n4)cc3Cl)c(=O)n(CC(=O)N3CCC[C@@H]3CN)c2n1 [Example I-153, 8-[2-[(2R)-2-(Aminomethyl)pyrrolidin-1-yl]-2-oxo-ethyl]-6-[2-chloro-4-(6-methylpyrazin-2-yl)phenyl]-2-(methylamino)pyrido[2,3-d]pyrimidin-7-one]
14.3 nM | CNc1ncc2cc(-c3ccc(-c4cccc(C)n4)cc3Cl)c(=O)n(CC(=O)N3CCNCC3)c2n1 [Example I-107, 6-[2-Chloro-4-(6-methyl-2-pyridyl)phenyl]-2-(methylamino)-8-(2-oxo-2-piperazin-1-yl-ethyl)pyrido[2,3-d]pyrimidin-7-one]
123 nM | CNc1ncc2cc(-c3ccc(-c4cncc(C)n4)cc3Cl)c(=O)n(CC(=O)N(C)C)c2n1 [Example I-86, 2-[6-[2-Chloro-4-(6-methylpyrazin-2-yl)phenyl]-2-(methylamino)-7-oxo-pyrido[2,3-d]pyrimidin-8-yl]-N,N-dimethyl-acetamide]
18.5 nM | Cc1cncc(-c2ccc(-c3cc4cnc(NC(C)C)nc4n(CCC4CCNC4=O)c3=O)c(Cl)c2)n1 (centres unmarked) [Example I-100, 6-[2-Chloro-4-(6-methylpyrazin-2-yl)phenyl]-2-(isopropylamino)-8-[2-(2-oxopyrrolidin-3-yl)ethyl]pyrido[2,3-d]pyrimidin-7-one]
